Active and inactive are the calls of the source. The rule behind the calls is not given here.
Legend:
Candida albicans [1] = test: Antifungal activity against Candida albicans 90028 assessed as fungal growth inhibition at 16 ug/ml measured after 18 hrs by microdilution method relative to control; assay type: functional; conditions: read-out: GI
Candida albicans [2] = test: Antifungal activity against Candida albicans 90028 assessed as fungal growth inhibition at 8 ug/ml measured after 18 hrs by microdilution method relative to control; assay type: functional; conditions: read-out: GI
Candida albicans [3] = test: Antifungal activity against Candida albicans 90028 assessed as fungal growth inhibition at 4 ug/ml measured after 18 hrs by microdilution method relative to control; assay type: functional; conditions: read-out: GI
Candida albicans [4] = test: Antifungal activity against Candida albicans 90028 assessed as fungal growth inhibition at 2 ug/ml measured after 18 hrs by microdilution method relative to control; assay type: functional; conditions: read-out: GI
Candida albicans [5] = test: Antifungal activity against Candida albicans 90028 assessed as fungal growth inhibition at 1 ug/ml measured after 18 hrs by microdilution method relative to control; assay type: functional; conditions: read-out: GI
Candida albicans [6] = test: Antifungal activity against Candida albicans 90028 assessed as fungal growth inhibition at 0.5 ug/ml measured after 18 hrs by microdilution method relative to control; assay type: functional; conditions: read-out: GI
Candida albicans [7] = test: Antifungal activity against Candida albicans 90028 assessed as fungal growth inhibition at 0.25 ug/ml measured after 18 hrs by microdilution method relative to control; assay type: functional; conditions: read-out: GI
Candida albicans [8] = test: Antifungal activity against Candida albicans 90028 assessed as fungal growth inhibition at 0.125 ug/ml measured after 18 hrs by microdilution method relative to control; assay type: functional; conditions: read-out: GI
Candida albicans [9] = test: Antifungal activity against Candida albicans 90028 assessed as fungal growth inhibition at 0.0625 ug/ml measured after 18 hrs by microdilution method relative to control; assay type: functional; conditions: read-out: GI
Candida albicans [10] = test: Antifungal activity against Candida albicans 90028 assessed as fungal growth inhibition at 0.0313 ug/ml measured after 18 hrs by microdilution method relative to control; assay type: functional; conditions: read-out: GI
Candida albicans [11] = test: Antifungal activity against Candida albicans 90028 assessed as fungal growth inhibition at 16 ug/ml measured after 48 hrs by microdilution method relative to control; assay type: functional; conditions: read-out: GI
Candida albicans [12] = test: Antifungal activity against Candida albicans 90028 assessed as fungal growth inhibition at 8 ug/ml measured after 48 hrs by microdilution method relative to control; assay type: functional; conditions: read-out: GI
Candida albicans [13] = test: Antifungal activity against Candida albicans 90028 assessed as fungal growth inhibition at 4 ug/ml measured after 48 hrs by microdilution method relative to control; assay type: functional; conditions: read-out: GI
Candida albicans [14] = test: Antifungal activity against Candida albicans 90028 assessed as fungal growth inhibition at 2 ug/ml measured after 48 hrs by microdilution method relative to control; assay type: functional; conditions: read-out: GI
Candida albicans [15] = test: Antifungal activity against Candida albicans 90028 assessed as fungal growth inhibition at 1 ug/ml measured after 48 hrs by microdilution method relative to control; assay type: functional; conditions: read-out: GI
Candida albicans [16] = test: Antifungal activity against Candida albicans 90028 assessed as fungal growth inhibition at 0.5 ug/ml measured after 48 hrs by microdilution method relative to control; assay type: functional; conditions: read-out: GI
Candida albicans [17] = test: Antifungal activity against Candida albicans 90028 assessed as fungal growth inhibition at 0.25 ug/ml measured after 48 hrs by microdilution method relative to control; assay type: functional; conditions: read-out: GI
Candida albicans [18] = test: Antifungal activity against Candida albicans 90028 assessed as fungal growth inhibition at 0.125 ug/ml measured after 48 hrs by microdilution method relative to control; assay type: functional; conditions: read-out: GI
Candida albicans [19] = test: Antifungal activity against Candida albicans 90028 assessed as fungal growth inhibition at 0.0625 ug/ml measured after 48 hrs by microdilution method relative to control; assay type: functional; conditions: read-out: GI
Candida albicans [20] = test: Antifungal activity against Candida albicans 90028 assessed as fungal growth inhibition at 0.0313 ug/ml measured after 48 hrs by microdilution method relative to control; assay type: functional; conditions: read-out: GI
Candida albicans [21] = test: Antifungal activity against Candida albicans 90028 assessed as fungal growth inhibition measured after 48 hrs by microdilution method; assay type: functional
Candida albicans [22] = test: Fungicidal activity against Candida albicans 90028 preincubated for 48 hrs followed by plating on SD agar and measured after 48 hrs; assay type: functional; conditions: time 96 hrs
[23] = Cytotoxicity against African green monkey Vero cells by XTT assay; assay type: cell-based; conditions: chlorocebus sabaeus
[24] = Cytotoxicity against human MRC5 cells by CellTiter 96 Aqueous One Solution Reagent based assay; assay type: cell-based
[25] = Toxicity in Galleria mellonella larvae assessed as survival at 16 ug/ml relative to control; conditions: at 16 µg/mL
[26] = Drug uptake in Galleria mellonella larvae assessed as increase in fluorescence in longitudinal larva slides measured after 2 hrs by fluorescence assay; assay type: ADME, tissue-based
Candida albicans [27] = test: Antifungal activity against Candida albicans 90028 infected in Galleria mellonella larvae at 16 ug/ml by H and E staining based histological analysis; assay type: functional, organism-based; conditions: dose 16.0 µg/ml
Candida albicans [28] = test: Induction of plasma membrane permeabilization in Candida albicans infected in human MRC5 cells at 16 ug/ml measured after 18 hrs by propidium iodide staining based confocal laser scanning microscopy; assay type: functional, organism-based; conditions: dose 16.0 µg/ml
Candida albicans [29] = test: Induction of plasma membrane permeabilization in Candida albicans infected in human TR146 cells at 16 ug/ml measured after 18 hrs by propidium iodide staining based confocal laser scanning microscopy; assay type: functional, organism-based; conditions: dose 16.0 µg/ml
Candida albicans [30] = test: Induction of cell demise in Candida albicans infected in human TR146 cells at 16 ug/ml measured after 18 hrs by AO/propidium iodide staining based confocal laser scanning microscopy; assay type: functional, organism-based; conditions: dose 16.0 µg/ml
Candida albicans [31] = test: Induction of cell demise in Candida albicans infected in human MRC5 cells at 16 ug/ml measured after 18 hrs by AO/propidium iodide staining based confocal laser scanning microscopy; assay type: functional, organism-based; conditions: dose 16.0 µg/ml
Vero = test: Cytotoxicity against African green monkey Vero cells at 0.25 to 512 ug/ml by XTT assay relative to control; assay type: cell-based; conditions: chlorocebus sabaeus, at 0.25 to 512 µg/mL, dose 0.25-512 µg/ml
[32] = Drug uptake in Galleria mellonella larvae assessed as increase in fluorescence near the proventriculus measured after 2 hrs by fluorescence assay; assay type: ADME
Candida albicans [33] = test: Antibiofilm activity against Candida albicans 90028 assessed as increasing in cell killing by XTT assay; assay type: functional
[34] = Drug uptake in Galleria mellonella larvae assessed as increase in fluorescence between cell wall and muscle layer measured after 2 hrs by fluorescence assay; assay type: ADME
Candida albicans [35] = test: Antifungal activity against Candida albicans 90028 infected in Galleria mellonella larvae assessed as increase in larvae survival at MFC measured 96 hrs post-infection relative to control; assay type: functional

Row | SMILES | inhibition of growth at 16 µg/mL (Candida albicans [1]) | inhibition of growth at 8 µg/mL (Candida albicans [2]) | inhibition of growth at 4 µg/mL (Candida albicans [3]) | inhibition of growth at 2 µg/mL (Candida albicans [4]) | inhibition of growth at 1 µg/mL (Candida albicans [5]) | inhibition of growth at 0.5 µg/mL (Candida albicans [6]) | inhibition of growth at 0.25 µg/mL (Candida albicans [7]) | inhibition of growth at 0.125 µg/mL (Candida albicans [8]) | inhibition of growth at 0.0625 µg/mL (Candida albicans [9]) | inhibition of growth at 0.0313 µg/mL (Candida albicans [10]) | inhibition of growth at 16 µg/mL (Candida albicans [11]) | inhibition of growth at 8 µg/mL (Candida albicans [12]) | inhibition of growth at 4 µg/mL (Candida albicans [13]) | inhibition of growth at 2 µg/mL (Candida albicans [14]) | inhibition of growth at 1 µg/mL (Candida albicans [15]) | inhibition of growth at 0.5 µg/mL (Candida albicans [16]) | inhibition of growth at 0.25 µg/mL (Candida albicans [17]) | inhibition of growth at 0.125 µg/mL (Candida albicans [18]) | inhibition of growth at 0.0625 µg/mL (Candida albicans [19]) | inhibition of growth at 0.0313 µg/mL (Candida albicans [20]) | further results
1 | O=[N+]([O-])c1cc(S(=O)(=O)C(F)(F)I)ccc1N/N=C\c1ccc(C2=C3C=CC=[N+]3[B-](F)(F)n3cccc32)cc1 | 100% | 100% | 100% | 100% | 100% | 100% | 100% | 100% | 100% | 100% | 100% | 100% | 100% | 100% | 100% | 100% | 97% | 95.5% | 94.3% | 75.8% | MIC (Candida albicans [21]): inactive; MFC (Candida albicans [22]): ≥ 16 µg/mL; CC50 [23]: ≥ 8 µg/mL; CC50 [24]: ≥ 16 µg/mL; survival [25]: 100%; Drug uptake [26]: Not Active; Activity (Candida albicans [27]): inactive; Activity (Candida albicans [28]): Active; Activity (Candida albicans [29]): Active; Activity (Candida albicans [30]): Active; Activity (Candida albicans [31]): Active
2 | O=[N+]([O-])c1cc(S(=O)(=O)C(F)(F)Cl)ccc1N/N=C\c1ccc(C2=C3C=CC=[N+]3[B-](F)(F)n3cccc32)cc1 | 100% | 100% | 100% | 99.9% | 100% | 99.8% | 100% | 99.8% | 100% | 100% | 100% | 100% | 100% | 100% | 100% | 100% | 99.9% | 100% | 99.8% | 99.8% | MIC (Candida albicans [21]): inactive; MFC (Candida albicans [22]): ≥ 16 µg/mL; Activity (Vero): 100%; CC50 [24]: ≥ 16 µg/mL; survival [25]: 93%; Drug uptake [26]: Not Active; Drug uptake [32]: Active; Activity (Candida albicans [27]): inactive; Activity (Candida albicans [28]): Active; Activity (Candida albicans [29]): Active; Activity (Candida albicans [30]): Active; Activity (Candida albicans [31]): Active
3 | C[C@@H]1[C@H](O)[C@@H](C)/C=C/C=C/C=C/C=C/C=C/C=C/C=C/[C@H](O[C@@H]2O[C@H](C)[C@@H](O)[C@H](N)[C@@H]2O)C[C@@H]2O[C@](O)(C[C@@H](O)C[C@@H](O)[C@H](O)CC[C@@H](O)C[C@@H](O)CC(=O)O[C@H]1C)C[C@H](O)[C@H]2C(=O)O | – | – | – | – | – | – | – | – | – | – | – | – | – | – | – | – | – | – | – | – | Activity (Candida albicans [33]): Active
4 | O=Cc1ccc(C2=C3C=CC=[N+]3[B-](F)(F)n3cccc32)cc1 | – | – | – | – | – | – | – | – | – | – | – | – | – | – | – | – | – | – | – | – | Drug uptake [34]: Active
5 | O=[N+]([O-])c1cc(S(=O)(=O)C(Cl)(Cl)Br)ccc1N/N=C\c1ccc(C2=C3C=CC=[N+]3[B-](F)(F)n3cccc32)cc1 | 100% | 100% | 100% | 100% | 100% | 100% | 100% | 99.7% | 99.8% | 99.7% | 100% | 100% | 100% | 100% | 100% | 100% | 100% | 99.7% | 99.8% | 99.7% | MFC (Candida albicans [22]): ≥ 16 µg/mL; Activity (Candida albicans [35]): 61.47%; CC50 [23]: ≥ 8 µg/mL; CC50 [24]: ≥ 256 µg/mL; survival [25]: 93%; Drug uptake [34]: Active; Drug uptake [32]: Active; Activity (Candida albicans [27]): Active; Activity (Candida albicans [28]): Active; Activity (Candida albicans [29]): Active; Activity (Candida albicans [30]): Active; Activity (Candida albicans [31]): Active

From ChEMBL document CHEMBL4680208, “Sulfone derivatives enter the cytoplasm of Candida albicans sessile cells” (Eur J Med Chem, 2020)
